Test system: T-47D
Assay: Caspase cascade activation in T-47D solid tumor cells (fluorogenic N-(Ac-DEVD)-N'-ethoxycarbonyl-R110 substrate)
Assay type: cell-based, Human
Conditions: T-47D (24 hr); for EC50: Homo sapiens, T47D, read-out: Caspase Potency EC50; for Caspase Activity Ratio: ratio of net RFU of test compound to that of control samples
Experimental: Human breast cancer cell lines T-47D and DLD-1 were grown according to media component mixtures designated by American Type Culture Collection+10% FCS (Invitrogen Corporation), in a 5% CO2-95% humidity incubator at 37° C. T-47D and DLD-1 cells were maintained at a cell density between 50 and 80% confluency at a cell density of 0.1 to 0.6×10^6 cells/mL. Cells were harvested at 600×g and resuspended at 0.65×10^6 cells/mL into appropriate media+10% FCS. An aliquot of 22.5 μL of cells was added to a well of a 384-well microtiter plate containing 2.5 μL of a 10% DMSO in RPMI-1640 media solution containing 0.16 to 100 μM of (2-chloro-quinazolin-4-yl)-(4-dimethylaminophenyl)-methylamine or other test compound (0.016 to 10 μM final). An aliquot of 22.5 μL of cells was added to a well of a 384-well microtiter plate containing 2.5 μL of a 10% DMSO in RPMI-1640 media solution without test compound as the control sample. […] After incubation, the samples were removed from the incubator and 25 μL of a solution containing 14 μM of N-(Ac-DEVD)-N′-ethoxycarbonyl-R110 fluorogenic substrate (Cytovia, Inc.; WO99/18856), 20% sucrose (Sigma), 20 mM DTT (Sigma), 200 mM NaCl (Sigma), 40 mM Na PIPES buffer pH 7.2 (Sigma), and 500 μg/mL lysolecithin (Calbiochem) was added. The samples were mixed by agitation and incubated at room temperature. Using a fluorescent plate reader (Model SPECTRAfluor Plus, Tecan), an initial reading (T=0) was made approximately 1-2 min after addition of the substrate solution, employing excitation at 485 nm and emission at 530 nm, to determine the background fluorescence of the control sample. After the 3 h incubation, the samples were read for fluorescence as above (T=3 h).
The Relative Fluorescence Unit values (RFU) were used to calculate the sample readings as follows: RFU(T=3h)−Control RFU(T=0)=Net RFU(T=3h)
The activity of caspase cascade activation was determined by the ratio of the net RFU value for (2-chloro-quinazolin-4-yl)-(4-dimethylaminophenyl)-methylamine or other test compounds to that of control samples. The EC50 (nM) was determined by a sigmoidal dose-response calculation (Prism 3.0, GraphPad Software Inc.).

With `CC(=O)Nc1ccc(N(C)c2nc(C)nc3ccccc23)cc1` [Example 1, (4-Acetamido-phenyl)-(2-methyl-quinazolin-4-yl)-methylamine] the EC50 was 0.047 µM and the “Caspase Activity Ratio” value was 8.1.
For `COc1c(Br)cc(N(C)c2nc(C)nc3cc([N+](=O)[O-])ccc23)cc1Br` [Example 2, (3,5-Dibromo-4-methoxyphenyl)-(2-methyl-7-nitroquinazolin-4-yl)-methylamine], the EC50 was > 10 µM and the “Caspase Activity Ratio” value was 1.1.
With `COc1ccc(N(C)c2nc(NCc3ccccc3)nc3ccccc23)cc1` [Example 3, (2-Benzylamino-quinazolin-4-yl)-(4-methoxyphenyl)-methylamine] the EC50 was 0.075 µM and the “Caspase Activity Ratio” value was 8.2.
`COC(=O)Nc1ccc(N(C)c2nc(C)nc3ccccc23)cc1` [Example 4, (2-Methyl-quinazolin-4-yl)-(4-methoxycarbonylamino-phenyl)-methylamine] was tested, and the EC50 was 0.073 µM and the “Caspase Activity Ratio” value was 8.5.
In the case of `Cc1nc(N(C)c2ccc(NC(N)=O)cc2)c2ccccc2n1` [Example 5, (2-Methyl-quinazolin-4-yl)-(4-ureido-phenyl)-methylamine], the EC50 is reported as 0.032 µM and the “Caspase Activity Ratio” value is reported as 9.3.
For `CC(=O)N(C)c1ccc(N(C)c2nc(C)nc3ccccc23)cc1` [Example 6, (2-Methyl-quinazolin-4-yl)-(N-methyl-4-acetamido-phenyl)-methylamine], the EC50 was 0.21 µM and the “Caspase Activity Ratio” value was 9.2.
For `CNc1ccc(N(C)c2nc(C)nc3ccccc23)cc1` [Example 7, (2-Methyl-quinazolin-4-yl)-(4-methylamino-phenyl)-methylamine], the EC50 was 0.018 µM and the “Caspase Activity Ratio” value was 3.4.
With `COC(=O)N(C)c1ccc(N(C)c2nc(C)nc3ccccc23)cc1` [Example 8, (2-Methyl-quinazolin-4-yl)-[4-(N-methyl-methoxycarbonylamino)-phenyl]-methylamine] the EC50 was 0.558 µM and the “Caspase Activity Ratio” value was 8.0.
For `COc1ccc(CNc2nc(N(C)c3ccc(OC)cc3)c3ccccc3n2)cc1` [Example 9], the EC50 was 0.258 µM and the “Caspase Activity Ratio” value was 5.6.
With `Cc1nc(N(C)c2ccc(N(C)C)cc2)c2cc([N+](=O)[O-])ccc2n1` [Example 10, (2-Methyl-6-nitroquinazolin-4-yl)-(4-dimethylaminophenyl)-methylamine] the EC50 was 0.979 µM and the “Caspase Activity Ratio” value was 2.6.
For `COc1ccc(N(C)c2nc(Cl)nc3ccc([N+](=O)[O-])cc23)cc1` [Example 11, (2-Chloro-6-nitroquinazolin-4-yl)-(4-methoxyphenyl)-methylamine], the EC50 was 5.08 µM and the “Caspase Activity Ratio” value was 4.0.
`Cc1nc(N(C)c2ccc(N(C)C)cc2)c2cc(N)ccc2n1` [Example 12, (6-Amino-2-methyl-quinazolin-4-yl)-(4-dimethylaminophenyl)-methylamine] was tested, and the EC50 was 0.033 µM and the “Caspase Activity Ratio” value was 3.8.
With `CN(C)c1ccc(N(C)c2nc(Cl)nc3ccccc23)cc1` [Example 13, (2-Chloro-quinazolin-4-yl)-(4-dimethylaminophenyl)-methylamine] the EC50 was 0.004 µM and the “Caspase Activity Ratio” value was 4.2.
In the case of `COc1ccc(N(C)c2nc(N(C)C)nc3ccc([N+](=O)[O-])cc23)cc1` [Example 14, (2-Dimethylamino-6-nitroquinazolin-4-yl)-(4-methoxyphenyl)-methylamine], the EC50 is reported as 2.36 µM and the “Caspase Activity Ratio” value is reported as 4.2.
For `CNc1nc(N(C)c2ccc(N(C)C)cc2)c2ccccc2n1` [Example 15, (2-Methylamino-quinazolin-4-yl)-(4-dimethylaminophenyl)-methylamine], the EC50 was 0.039 µM and the “Caspase Activity Ratio” value was 3.9.
`CC(=O)N(C)c1nc(N(C)c2ccc(N(C)C)cc2)c2ccccc2n1` [Example 16, [2-(N-Methyl-acetamido)-quinazolin-4-yl]-(4-dimethylaminophenyl)-methylamine] was tested, and the EC50 was 0.014 µM and the “Caspase Activity Ratio” value was 2.4.
`CNc1nc(N(C)c2ccc(OC)cc2)c2cc([N+](=O)[O-])ccc2n1` [Example 17, (2-Methylamino-6-nitroquinazolin-4-yl)-(4-methoxyphenyl)-methylamine] was tested, and the EC50 was 0.619 µM and the “Caspase Activity Ratio” value was 3.7.
`COc1ccc(N(C)c2nc(N(C)C)nc3ccc(N)cc23)cc1` [Example 18, (6-Amino-2-dimethylamino-quinazolin-4-yl)-(4-methoxyphenyl)-methylamine] was tested, and the EC50 was 0.221 µM and the “Caspase Activity Ratio” value was 4.7.
`CNc1nc(N(C)c2ccc(OC)cc2)c2cc(N)ccc2n1` [Example 19, (6-Amino-2-methylamino-quinazolin-4-yl)-(4-methoxyphenyl)-methylamine] was tested, and the EC50 was 0.214 µM and the “Caspase Activity Ratio” value was 4.3.
For `CSc1ccc(Nc2nc(C)nc3ccccc23)cc1` [Example 20, (4-Methylthio-phenyl)-(2-methyl-quinazolin-4-yl)-amine], the EC50 was > 10 µM and the “Caspase Activity Ratio” value was 1.1.
For `CSc1ccc(N(C)c2nc(C)nc3ccccc23)cc1` [Example 21, (4-Methylthio-phenyl)-(2-methyl-quinazolin-4-yl)-methylamine], the EC50 was 0.004 µM and the “Caspase Activity Ratio” value was 7.5.
With `Cc1nc(Nc2ccc(N(C)C)cc2)c2ccccc2n1` [Example 22, (4-Dimethylamino-phenyl)-(2-methyl-quinazolin-4-yl)-amine] the EC50 was 2.86 µM and the “Caspase Activity Ratio” value was 8.7.
`Cc1nc(N(C)c2ccc3c(c2)nnn3C)c2ccccc2n1` [Example 23, (1-Methyl-1H-benzotriazol-5-yl)-(2-methyl-quinazolin-4-yl)-methylamine] was tested, and the EC50 was > 10 µM and the “Caspase Activity Ratio” value was 1.1.
For `COc1ccc(Nc2nc(C)nc3ccccc23)cc1OC` [Example 24, (3,4-Dimethoxy-phenyl)-(2-methyl-quinazolin-4-yl)-amine], the EC50 was > 10 µM and the “Caspase Activity Ratio” value was 1.3.
With `COc1ccc(N(C)c2nc(C)nc3ccccc23)cc1OC` [Example 25, (3,4-Dimethoxy-phenyl)-(2-methyl-quinazolin-4-yl)-methylamine] the EC50 was 0.009 µM and the “Caspase Activity Ratio” value was 10.2.
In the case of `Cc1nc(Nc2ccc(N(C)C)nc2)c2ccccc2n1` [Example 26, (2-Dimethylamino-pyridine-5-yl)-(2-methyl-quinazolin-4-yl)-amine], the EC50 is reported as > 10 µM and the “Caspase Activity Ratio” value is reported as 1.3.
`Cc1nc(N(C)c2ccc(N(C)C)nc2)c2ccccc2n1` [Example 27, (2-Dimethylamino-pyridine-5-yl)-(2-methyl-quinazolin-4-yl)-methylamine] was tested, and the EC50 was 0.014 µM and the “Caspase Activity Ratio” value was 9.0.
In the case of `COc1ccc(N(C)c2nc(N(C)C(C)=O)nc3ccccc23)cc1` [Example 28, (4-Methoxy-phenyl)-(2-N-methylacetamido-quinazolin-4-yl)-methylamine], the EC50 is reported as 0.007 µM and the “Caspase Activity Ratio” value is reported as 4.0.
With `COC(=O)N(C)c1nc(N(C)c2ccc(OC)cc2)c2ccccc2n1` [Example 29, (4-Methoxy-phenyl)-(2-N-methyl-methoxycarbonylamino-quinazolin-4-yl)-methylamine] the EC50 was 0.034 µM and the “Caspase Activity Ratio” value was 9.6.
In the case of `COc1ccc(N(C)c2nc(C)nc3ccc(N(C)C)cc23)cc1` [Example 30, (6-Dimethylamino-2-methyl-quinazolin-4-yl)-(4-methoxy-phenyl)-methylamine], the EC50 is reported as 0.382 µM and the “Caspase Activity Ratio” value is reported as 6.4.
With `COc1ccc(N(C)c2nc(C)nc3ccc(NC(C)=O)cc23)cc1` [Example 31, (6-Acetamido-2-methyl-quinazolin-4-yl)-(4-methoxy-phenyl)-methylamine] the EC50 was 0.796 µM and the “Caspase Activity Ratio” value was 3.2.

Reference: patent US7989462B2, “4-arylamin-or-4-heteroarylamino-quinazolines and analogs as activators of caspases and inducers of apoptosis and the use thereof” (Myrexis, Inc., priority 2003, dated 2011)
